Laboratory results published in US20110098556A1, “Computer-Based Method And System For Imaging-Based Dynamic Function Evaluation Of An Organ” (priority 2008, published 2011).
Where “and” joins values, the source holds several entries; their conditions need not be identical. Identical values can stand only once.

Columns and labels:
liver [1] = test: T1-weighted Gd-EOB-DTPA-enhanced DHCE-MRI liver function test, healthy volunteers; type: in vivo, human; set-up: key to median HEF / HEF, mean / HEF, median / HEF, max / HEF: ratio of extrapolated hepatic retention curve to vascular peak of HE curve; conditions: for median HEF: healthy volunteers; for HEF, mean / HEF, max / HEF, median: n=20 healthy volunteers
Protocol: Deconvoluted liver response curves were analyzed with respect to HEF and RBF. HEF was described by Brown et al using Tc-99-disofenin scintigraphy as a measurement of hepatic extraction efficiency, and could be understood as the percentage of tracer that would have been extracted if the tracer had been injected directly into the afferent blood supply of the liver without subsequent recirculation. […] The HE curve can be divided into the vascular phase and the hepatocyte retention phase, which describes the hepatic extraction. We calculated HEF using a monoexponential fit to the HE-curve data points from 420 to 1800 seconds after the time of injection of the tracer. The starting point at 420 seconds was chosen after visual inspection of the deconvoluted HE curves. The fitted curve, the hepatic retention curve (HRC, a mono-exponentially decaying fitted curve), is then extrapolated back to the time of the vascular peak value, and HEF is defined as the ratio between the extrapolated HRC curve and the vascular peak of the HE curve (also shown in FIG. 3),
RBF, giving a relative measurement of blood flow in the liver, is described as the initial peak value of the HE curve. RBF values were normalized to the segment with the highest RBF, i.e. the segment with the highest RBF was set to 100%.
The input function was defined by a region of interest (ROI) placed in the hilar part of the portal vein. Due to patient motion, the input function ROI was adjusted in each dynamic acquisition so the voxels represent portal vein blood. Liver response function curves were defined by placing three ROIs in each liver segment (I to VIII with segment IV divided into IVa and IVb). The relative enhancement over time of the voxels in the ROI was regarded as the parenchymal response function for that ROI. Data points were interpolated using equidistant spacing (60 s) over the 90-minute time period. […] Care was taken to as far as possible to exclude major blood vessels and visible bile ducts when the ROIs were placed. Segments were defined and nomenclature adhered to as proposed by Strasberg SM. Terminology of liver anatomy and liver resections: coming to grips with hepatic Babel. J Am Coll Surg 1997; 184(4):413-434, which is incorporated herein by reference in its entirety. However, other segmentations may be used in other embodiments.
HEF and RBF were calculated for each ROI both with TSVD and FA+tail using specific in-house software written in MATLAB® (Mathworks, […], USA). Thus, each ROI yielded two values for HEF and RBF respectively. For TSVD, a static truncation threshold was set at c=0.07. A cosine function from 0 to π/2 with the initial height of the last point of x(t) and y(t) was added for the DA performed with FA, and the length of the tail was set to be three times the length of the total sampling period of 90 minutes. […]
To arrive at an estimation of the model parameters, an iterative method was used. After assigning starting values to kij and f the impulse response function h(t) was estimated through Eq 10, and an output function yout(t) was calculated through yout(t)=h(t) ? x(t)+f·x(t), using the input function x(t) from the portal vein as an estimate for the blood pool signal in Equation 7. The response function y(t) on the other hand was measured in a ROI in the liver parenchyma, and the parameters kij and f were determined by iteratively minimizing the squared difference diff=(y(t)−yout(t))^2, see FIG. 17.
For some response curves either T10, or both T5 and T10, were beyond the last measured time point, and no value was set. Tmax, T5 and T10 were measured in seconds.
where g(t) is the fitted curve and the fitting parameters c2 and TU describe contrast uptake, while c1 and TE describe the liver contrast excretion. Both TE and TU were calculated in minutes.
T1-weighted Gd-EOB-DTPA-enhanced DHCE-MRI was performed on 20 healthy volunteers, 10 men and 10 women, ages ranging from 22 to 45 years. […]

liver [2] = test: Gd-EOB-DTPA-enhanced DHCE-MRI in patients with primary biliary cirrhosis (PBC); type: in vivo, human
Protocol: (§1) T1-weighted Gd-EOB-DTPA-enhanced DHCE-MRI was performed on 20 healthy volunteers, 10 men and 10 women, and on patients with an established diagnosis of PBC. Routine serum liver function tests were performed at inclusion in the study on the healthy volunteers, and for the patients it was recorded from the most recent visit documented in their clinical charts. The healthy volunteers had no history of hepato-biliary disease, previous hepato-biliary surgery or alcohol abuse. All subjects were asked to be fasting for at least four hours prior to the examination. For each patient, relevant clinical data was documented and together with the results from the liver function tests they were used to calculate the CPS, Mayo risk score and MELD score.
(§2) T1-weighted Gd-EOB-DTPA-enhanced DHCE-MRI was performed using a Philips Intera 1.5T scanner (Best, Holland), with a Philips four-channel SENSE body coil according to the protocol in Example 1. Deconvolutional analysis was performed using truncated singular value decomposition (TSVD). HEF and irBF were calculated as described above. […] The Mann-Whitney U-test was used for test of significance and the significance level was set to […]. All segments in every patient and controls yielded an observation and in the statistical analysis, all observations were regarded as independent observations, even if they originated from one individual. Thus, the study yielded 180 observations for each of the abovementioned parameters from the controls, and 108 observations from PBC patients.

liver [3] = test: Gd-EOB-DTPA-enhanced MRI in patients with primary sclerosing cholangitis (PSC); type: in vivo, human; set-up: HEF: unit not given here
Protocol: as §1, with “MRI” for “DHCE-MRI”, “PSC.” for “PBC.”
as §2, with “MRI” for “DHCE-MRI”, “protocol as outlined” for “protocol”, “PSC” for “PBC”

[4] = in vivo; cited from earlier work
[5] = median for healthy controls (n = 180)
[6] = individual PBC patient, median of 9 segmental values
[7] = median for PBC patients (n = 108)
[8] = individual PSC patient, median of 9 segmental values
[9] = median for PSC patients (segments n = 108)

CCOc1ccc(CC(CN(CCN(CC(=O)[O-])CC(=O)[O-])CC(=O)[O-])N(CC(=O)[O-])CC(=O)[O-])cc1.[Gd+3].[Na+].[Na+] (stereo not drawn) [Gd-EOB-DTPA, Gadolinium ethoxybenzyl diethylenetriaminepentaacetic acid]
signal intensity half-time (TE) (liver [1]; compared with total scan time): > 90 min
mean HEF (liver [1]; example 1, healthy volunteers): above 20%
hepatic extraction fraction (HEF) (liver [1]; example curve of FIG. 3, FA+tail): approximately 17%
median HEF (liver [1]; left hemiliver, FA+tail): 0.194
median HEF (liver [1]; left hemiliver, TSVD): 0.196
HEF (liver [1]; median for 20 healthy controls (n = 180 segments), TSVD): 0.201
T5 (liver [1]; [5]): 1600 s
T10 (liver [1]; [5]): 2295 s
Tmax (liver [1]; [5]): 33.33 min
HEF, mean (liver [1]; 180 segmental values, deconvolution by TSVD): 0.215
HEF, max (liver [1]; FA + tail): 0.440
HEF, median (liver [1]; FA + tail): 0.210
HEF, max (liver [1]; TSVD): 0.436
HEF, median (liver [1]; TSVD): 0.208
HEF, mean (liver [1]; deconvolution by FA + tail): 0.217
median HEF (liver [1]; right hemiliver, FA+tail): 0.224
median HEF (liver [1]; right hemiliver, TSVD): 0.218
T5 (time from Tmax to five percent decay) (liver [2]; [6]): 24.33 min and 18.17 min and 40.67 min and 33 min and 24.83 min and 21.67 min and 34 min and 24.67 min and 25.67 min and 13.5 min and 4 min and 15.7 min
T10 (time from Tmax to ten percent decay) (liver [2]; [6]): 30.5 min and 28 min and 38 min and 34 min and 50.5 min and 32.5 min and 48 min and 41 min and 41.33 min and 30 min and 15.7 min and 24 min
Tmax (time to maximum intensity) (liver [2]; [6]): 48.33 min and 35 min and 36.67 min and 66.67 min and 43.33 min and 60 min and 22.67 min and 40 min and 8 min and 3.33 min and 51.67 min
HEF (liver [2]; individual PBC patient, median of 9 segmental values, TSVD): 0.163 (2×) and 0.225 and 0.302 and 0.150 and 0.093 and 0.226 and 0.199 and 0.155 and 0.106 and 0.047 and 0.152
TE (excretion half-time) (liver [2]; individual PBC patient, median of 9 segments, bi-exponential fit): 3780 min and 1591 min and 4791 min and 6961 min and 4241 min and 1180 min and 8011 min and 2130 min and 2481 min and 1141 min and 2830 min and 1281 min
T5 (liver [2]; [7]): 1440 s
T10 (liver [2]; [7]): 1920 s
TE (liver [2]; [7]): 2850 min
Tmax (liver [2]; [7]): 41 min
HEF (liver [2]; median for PBC patients (n = 108 segments)): 0.161
T5 (liver [3]; [8]): 1720 s and 980 s and 1620 s and 940 s and 1420 s and 1380 s and 1170 s and 1400 s and 1250 s and 1500 s and 1340 s and 2140 s
T10 (liver [3]; [8]): 1980 s and 1560 s and 1950 s and 1720 s and 2645 s and 1840 s and 2340 s and 2600 s and 2050 s and 2490 s and 2460 s and 3540 s
Tmax (liver [3]; [8]): 56.67 min and 41.67 min and 46.67 min and 27 min and 31 min and 30 min and 48 min and 21.33 min and 36.67 min and 28 min and 63.33 min
HEF (liver [3]; individual PSC patient, median of 9 segmental values, TSVD): 0.158 and 0.213 and 0.221 and 0.307 and 0.140 and 0.220 and 0.159 and 0.136 (2×) and 0.123 and 0.174 and 0.240
TE (liver [3]; individual PSC patient, median of 9 segments, bi-exponential fit): 1427 min and 110 min and 184 min and 102 min and 244 min and 211 min and 251 min and 203 min and 147 min and 128 min and 341 min and 452 min
HEF (liver [3]; [9]): 0.176
T5 (liver [3]; [9]): 1340 s
T10 (liver [3]; [9]): 2050 s
TE (liver [3]; [9]): 204 min
Tmax (liver [3]; [9]): 37.67 min
fraction eliminated by renal excretion (glomerular filtration) [4]: 50%
hepatic clearance [4]: about 50%
